ChEMBL document CHEMBL1201862, “PubChem BioAssay data set” (2004)
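Following 48 hours of exposure in 96-well plates, responses at five concentrations were used to interpolate endpoints linearly. GI50 marks 50% less growth.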 Activity calls are given as the source filed them. Rule as the data show it: active = GI50 up to about 1.1 µM and inactive = higher.

Experiments:
Assay in all cases: inhibition of tumour cell growth, NCI panel, 48 h
DLD-1 = test system: DLD-1
DMS-114 = test system: DMS-114
DMS-273 = test system: DMS-273
KM-20L2 = test system: KM-20L2
LXFL 529 = test system: LXFL 529
M19-MEL = test system: M19-MEL
RXF 631 = test system: RXF 631
SNB-78 = test system: SNB-78
XF498 = test system: XF498

| SMILES | GI50 (DLD-1) | GI50 (DMS-114) | GI50 (DMS-273) | GI50 (KM-20L2) | GI50 (LXFL 529) | GI50 (M19-MEL) | GI50 (RXF 631) | GI50 (SNB-78) | GI50 (XF498) |
| --- | --- | --- | --- | --- | --- | --- | --- | --- | --- |
| CC1(C)C(=O)N(c2ccccc2)C(=O)N1c1nc2ccccc2[nH]1 | > 100 µM (inactive) | 38.7 µM (inactive) | > 100 µM (inactive) | > 100 µM (inactive) | 85.3 µM (inactive) | > 100 µM (inactive) | > 100 µM (inactive) | > 100 µM (inactive) | 92.7 µM (inactive) |
| COC(=O)/C=C/c1cc(OC)c(OC)c(OC)c1 | > 100 µM (inactive) | > 100 µM (inactive) | > 100 µM (inactive) | > 100 µM (inactive) | > 100 µM (inactive) | 93.8 µM (inactive) | 82.4 µM (inactive) |  | > 100 µM (inactive) |
| CC(=O)CNC(=O)OC(C)(C)C | > 100 µM (inactive) | > 100 µM (inactive) | > 100 µM (inactive) | > 100 µM (inactive) |  | > 100 µM (inactive) |  | > 100 µM (inactive) | > 100 µM (inactive) |
| C1OC1CO[C@@H]1CO[C@H]2[C@@H]1OC[C@H]2OCC1CO1 (stereo partly specified) | > 100 µM (inactive) | > 100 µM (inactive) | > 100 µM (inactive) | > 100 µM (inactive) |  | > 100 µM (inactive) |  | > 100 µM (inactive) | > 100 µM (inactive) |
| O=C(CC(=O)c1cccc2ccccc12)C(=O)NC1C2CC3CC(C2)CC1C3 (stereo unspecified) | > 100 µM (inactive) | > 100 µM (inactive) | > 100 µM (inactive) | > 100 µM (inactive) | > 100 µM (inactive) | > 100 µM (inactive) | > 100 µM (inactive) | > 100 µM (inactive) | > 100 µM (inactive) |
| O=C(COc1ccc2c(=O)cc(-c3ccc(Cl)cc3)oc2c1)N1CCN(c2ccccc2)CC1 | > 100 µM (inactive) |  |  | > 100 µM (inactive) | 11.9 µM (inactive) | > 100 µM (inactive) | 6.58 µM (inactive) | 5.11 µM (inactive) | > 100 µM (inactive) |
| O=C(c1ccc(Cl)cc1)C1OC12C(=O)Nc1ccccc12 (stereo unspecified) | 2.42 µM (inactive) | 12.4 µM (inactive) | 12.7 µM (inactive) | 19.4 µM (inactive) | 3.08 µM (inactive) | 10.4 µM (inactive) | 17 µM (inactive) | 16 µM (inactive) | 12.5 µM (inactive) |
| C1=CC(N(c2ccccc2)C2C=CCCC2)CCC1 (stereo unspecified) | > 100 µM (inactive) | 67.3 µM (inactive) | > 100 µM (inactive) | 72.6 µM (inactive) | > 100 µM (inactive) | > 100 µM (inactive) |  |  |  |
| c1ccc(SC23C4C5C6C4C2C6C53)nc1 (stereo unspecified) | > 100 µM (inactive) | > 100 µM (inactive) | > 100 µM (inactive) | > 100 µM (inactive) | > 100 µM (inactive) | > 100 µM (inactive) | > 100 µM (inactive) | > 100 µM (inactive) |  |
| COC(=O)C1=C(C)N(NC(N)=O)C2(N)N(NC(N)=O)C(C)=C(C(=O)OC)C12C(=O)OC (stereo unspecified) | > 100 µM (inactive) | > 100 µM (inactive) | > 100 µM (inactive) | > 100 µM (inactive) | > 100 µM (inactive) | > 100 µM (inactive) | > 100 µM (inactive) | > 100 µM (inactive) | > 100 µM (inactive) |
| COc1ccc(-c2nc3c(nc2-c2ccc(OC)cc2)C(N)=NS(=O)(=O)N3)cc1 | > 100 µM (inactive) | > 100 µM (inactive) | > 100 µM (inactive) |  |  | > 100 µM (inactive) | > 100 µM (inactive) |  |  |
| CCCCN(Cc1ccccc1)/C(=N/C#N)N(Cc1ccccc1)Cc1ccccc1 | 24.9 µM (inactive) |  | 16.6 µM (inactive) | 6.82 µM (inactive) | 7.94 µM (inactive) | 24.4 µM (inactive) |  | 24.2 µM (inactive) |  |
| CN(C)C(=S)Nc1nnc(Nc2ccccc2)s1 | > 100 µM (inactive) |  | > 100 µM (inactive) | > 100 µM (inactive) | > 100 µM (inactive) | > 100 µM (inactive) | > 100 µM (inactive) | > 100 µM (inactive) |  |
| O=C(/C=C/c1cc(Cl)cc(Cl)c1O)c1cccc(O)c1 | 38.8 µM (inactive) | 35.9 µM (inactive) | 54.2 µM (inactive) | 48.3 µM (inactive) | 57.1 µM (inactive) | 26.5 µM (inactive) |  | 91.8 µM (inactive) |  |
| Nc1nc2ncn(CC(O)CO)c2c(=S)[nH]1 (stereo unspecified) | > 100 µM (inactive) | > 100 µM (inactive) | > 100 µM (inactive) | > 100 µM (inactive) | > 100 µM (inactive) | > 100 µM (inactive) | > 100 µM (inactive) | > 100 µM (inactive) | 23.4 µM (inactive) |
| Cc1ccc(C2(O)CC(c3ccc([N+](=O)[O-])o3)=NN2C(=O)COc2ccc(Cl)cc2)cc1 (stereo unspecified) | 3.23 µM (inactive) | 9.86 µM (inactive) | 6.32 µM (inactive) | 7.18 µM (inactive) | 2.79 µM (inactive) | 3.67 µM (inactive) |  | 12.9 µM (inactive) | 11.4 µM (inactive) |
| COc1cc(C=O)c(-c2cc3c(cc2C2(C)OCCS2)OCO3)c(OC)c1OC (stereo unspecified) | 16.7 µM (inactive) | 17.5 µM (inactive) | 10.3 µM (inactive) | 4.08 µM (inactive) | 17.6 µM (inactive) |  |  | 8.65 µM (inactive) | 9.66 µM (inactive) |
| COc1ccc(C2S/C(=C\c3ccc([N+](=O)[O-])cc3)C(=O)N2NC(=O)Cc2ccccc2)cc1 (stereo unspecified) | > 100 µM (inactive) | 45.8 µM (inactive) | > 100 µM (inactive) |  | > 100 µM (inactive) | > 100 µM (inactive) |  |  |  |
| O=C1Nc2ccccc2C12CCNC2Cc1ccccc1 (stereo unspecified) | > 100 µM (inactive) | > 100 µM (inactive) | > 100 µM (inactive) | > 100 µM (inactive) | > 100 µM (inactive) | > 100 µM (inactive) |  |  | > 100 µM (inactive) |
| CCOc1ccc(N2C(=O)/C(=C/c3ccc(N(CCC#N)CCC#N)cc3)N=C2c2cc([N+](=O)[O-])ccc2Cl)cc1 | 32.2 µM (inactive) | 33.9 µM (inactive) | 14.7 µM (inactive) |  | 30 µM (inactive) | 24.2 µM (inactive) | 39.6 µM (inactive) | > 100 µM (inactive) |  |
| CCC/C(=N\NC(=S)N1CCN(c2ccccn2)CC1)c1ccccn1 | < 0.001 µM (active) | < 0.001 µM (active) | 0.00117 µM (active) | < 0.001 µM (active) | < 0.001 µM (active) | 0.0366 µM (active) | 0.133 µM (active) | 0.583 µM (active) | < 0.001 µM (active) |
